Earlier results, collected in patent US5637565A, “Purified form of streptogramins, its preparation and pharmaceutical compositions containing it” (Rhone-Poulenc Rorer S.A., priority 1993, dated 1997).

Conditions: purified crystalline product

For `CC1=C\[C@@H](O)CC(=O)Cc2nc(co2)C(=O)N2CCC=C2C(=O)O[C@H](C(C)C)[C@H](C)/C=C/C(=O)NC\C=C\1` [pristinamycin IIA], the bioavailability is listed as “too low”.
